Results on two compounds are retold here after patent US12187705B2, “Heteroaryl-triazole and heteroaryl-tetrazole compounds as pesticides” (Bayer Aktiengesellschaft, priority 2018, dated 2025).

SMILES strings stand for the structures.

Holding throughout (type): in vivo
The subject of experiment [1] is Rhipicephalus sanguineus. The experiment can be described thus: Rhipicephalus sanguineus in-vitro contact test with adult brown dog ticks. The settings on record: Rhipicephalus sanguineus; 5 μg/cm^2 (=500 g/ha), after 48 hours; read-out: efficacy (ticks dead or moribund). A digest of the protocol:
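Compound in acetone coated onto inner walls of glass tubes; 900 ppm gives 5 μg/cm^2. Five to ten adult ticks held 48 h at room temperature, then heated at 45-50° C. up to 5 min; ticks unable to climb away scored dead or moribund, efficacy as % dead/moribund.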

Experiment [2] concerns Myzus persicae. The experiment is described as follows: Myzus persicae oral test. The settings on record: 120 h. A digest of the protocol:
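Feeding test: compound diluted in water was combined with IPL41 insect medium (33%+15% sugar) under a parafilm seal. A mixed population of green peach aphids fed through the membrane. Mortality (%) was scored after 5 days.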

For experiment [3], the system named is Nezara viridula. The experiment can be described thus: Nezara viridula spray test. The conditions noted are these: in Hordeum vulgare, 96 h. A digest of the protocol:
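Barley plants infested with stink bug larvae were sprayed with compound diluted in water containing 1000 ppm emulsifier. Mortality (%) was scored after 4 days, 100% meaning all bugs killed.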

Experiment [4] concerns Musca domestica strain WHO-N. The experiment is described as follows: Musca domestica test (MUSCDO surface treatment & contact assay). The settings on record: 24 hours after contact, read-out: efficacy (mortality); for mortality at 20 mg/m2: surface concentration 20 mg/m^2, 30 minutes exposure. The method in brief:
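Compound was dissolved in acetone (2 mg/ml) with 2000 ppm rapeseed oil methyl ester and pipetted onto glazed tiles. After the acetone evaporated, adult WHO-N flies were exposed to the dried surface for 30 minutes. Percent mortality was recorded 24 hours after contact.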

In experiment [5] the test system is cattle ticks (Boophilus microplus) strane Parhurst, SP-resistant. The experiment is described as follows: Boophilus microplus dip test. The conditions noted are these: 100 ppm, egg deposition after 7 days. As to the method: Boophilus microplus—Dip Test
Test animal: cattle ticks (Boophilus microplus) strane Parhurst, SP-resistant
Solvent: dimethyl sulfoxide
To produce a suitable preparation of active compound, 10 mg of active compound are dissolved in 0.5 ml solvent, and the concentrate is diluted with water to the desired concentration.
This compound solution is pipetted into tubes. 8-10 engorged, adult, female cattle ticks (Boophilus microplus) are placed in perforated tubes. These tubes are immersed in the aqueous compound solution until the ticks are completely moistened. After the liquid has drained off, the ticks are transferred to a filter paper in a plastic tray and stored in a climate chamber.
After 7 days egg deposition of fertile eggs is monitored. Eggs where fertility is not visible are stored in a climate chamber till hatching after about 42 days. An efficacy of 100% means all eggs are infertile; 0% means all eggs are fertile.

In experiment [6] the test system is Anopheles funestus strain FUMOZ-R. The experiment is described as follows: Anopheles funestus test (ANPHFU surface treatment & contact assay). The settings on record: surface concentration 20 mg/m^2, 30 minutes exposure, 24 hours after contact, read-out: efficacy (mortality). A digest of the protocol:
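Compound dissolved in acetone (2 mg/ml) with 2000 ppm rapeseed oil methyl ester, dried onto glazed tile; adult Anopheles funestus FUMOZ-R exposed for 30 minutes. Percent mortality scored 24 hours after contact.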

`CCN(C(=O)c1cc(Cl)cc(S(C)(=O)=O)c1)C(C)c1ncnn1-c1ncccn1` (centres unmarked) [Example I-040, 3-chloro-N-ethyl-5-(methylsulfonyl)-N-{1-[1-(pyrimidin-2-yl)-1H-1,2,4-triazol-5-yl]ethyl}benzamide]: the pest or weed control at 5 µg/cm2, 5 µg/cm2 in experiment [1] stood at 100%. For the same compound, the mortality at 4 ppm in experiment [2] came to 100%. In experiment [3], this compound displayed a mortality at 500 g/ha of 100%. Also, the mortality at 20 mg/m2 in experiment [4] lay in the range of 80 to 100%.

Consider `C[C@@H](NC(=O)c1cc(Cl)cc(S(=O)(=O)C2CC2)c1)c1ncnn1-c1ncccn1` [Example I-042], for which the pest or weed control at 5 µg/cm2, 5 µg/cm2 in experiment [1] turned out to be 80%. Besides, in experiment [5], the “efficacy (infertile eggs)” value was determined as 100%. In experiment [2], the mortality at 4 ppm worked out at 100%. Moreover, the mortality at 500 g/ha in experiment [3] was found to be 100%. In addition, the mortality at 20 mg/m2 in experiment [6] lay within 85 to 100%; in experiment [4] it was 80 to 100%. Moreover, the mortality at 4 mg/m2 in experiment [4] (surface concentration 4 mg/m^2, 30 minutes exposure) fell in the range of 80 to 100%.
